Results from patent US20260008775A1, “AZOLE MODULATORS OF CHOLESTEROL BIOSYNTHESIS AND THEIR USE FOR PROMOTING REMYELINATION” (GENENTECH, INC., priority 2022, published 2026).
pEC50, pKi: −log10 of the molar value.

Key:
[1] = target: human emopamil binding protein and human 7-dehydrocholesterol reductase (hEBP-DHCR7) (Homo sapiens (Human), UniProt Q15125); assay: hEBP-DHCR7 radioligand binding assay (filter binding, membranes of co-expressing HEK293 cells); settings: competition with [3H] radioligand, 8 doses 0.06 to 5000 nM, Ki calculated from IC50
human emopamil binding protein and human 7-dehydrocholesterol reductase (hEBP-DHCR7), sequence (Q15125 whole entry): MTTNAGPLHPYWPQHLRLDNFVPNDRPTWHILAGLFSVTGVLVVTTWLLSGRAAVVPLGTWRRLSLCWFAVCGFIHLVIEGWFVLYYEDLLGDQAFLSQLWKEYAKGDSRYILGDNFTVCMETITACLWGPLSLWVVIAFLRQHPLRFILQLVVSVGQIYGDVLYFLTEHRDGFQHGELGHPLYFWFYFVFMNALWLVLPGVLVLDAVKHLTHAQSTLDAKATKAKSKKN
Protocol: Membrane Preparation: human emopamil binding protein and human 7-dehydrocholesterol reductase co-expressing cells were generated by transient transfecting host human embryonic kidney (HEK) 293 cells with 2 DNA constructs containing each protein's coding sequence. Cells were suspension cultured at 37° C. with 5% CO2 in […] 293 Expression Medium (Thermofisher). Whole cell membrane was prepared by harvesting the cell pellet, adding cold membrane buffer (50 mM Tris, pH7.5, 1× Roche COMPLETE EDTA-free protease inhibitor cocktail) 10 times volume of the cell pellets weight, lysing cell pellet on ice by using Dounce homogenizer, spinning at 200 g 4° C. for 15 min, collecting supernatant and spinning again at 25000 g 4° C. for 50 min, transferring pellet to Dounce homogenizer, re-suspending pellet by homogenizing in membrane buffer on ice to reach ˜25 mg/mL, then keeping whole cell membrane aliquots at −80° C.
Compounds were prepared in a 96-well U bottom plate (Corning Cat #7007) using an Echo550 machine and 10 mM compound DMSO stock solution, followed by an 8-dose 5-fold serial dilutions protocol with final testing compound concentration ranging from 0.06 to 5000 nM, with DMSO back fill to 100 nL/well and n=2. […] The UniFilter-96 GF/B plates (PerkinElmer Cat #6005177) were pre-treated by adding 50 μl/well of 0.3% (v/v) Polyethylenimine (PEI) (branched, Sigma Cat #408727) to UniFilter-96 GF/B plates. The plates were sealed and incubated at 4° C. for 3 hrs. Then, the plates were washed with ice-cold assay buffer 3 times. The radioligand binding assay was prepared by adding assay buffer diluted hEBP-DHCR7 membrane at 66.7 µg/ml×150 μl/well into the 96-well compound plate to reach 10 μg membrane per well. Then, the assay buffer diluted [3H]—(S)-6-(2-Methyl-3-(6-(trifluoromethyl)pyridin-3-yl)propyl)-2-thia-6-azaspiro[3.4]octane 2,2-dioxide (Moravek, Cat #MT-1003106) was added at 25 nM×50 μl/well. Following this, the plate was centrifuged at 1000 rpm for 30 secs. The plate was then sealed and agitated at 600 rpm at 22° C. for 5 min, and then incubated at 22° C. for 3 hrs. The incubation was stopped by transferring the binding solution to the pre-treated UniFilter-96 GF/B plate, vacuum filtrated, and then washed four times with ice-cold assay buffer. Following this, the plates were dried at 37° C. for 45 min. The plates were then sealed at the bottom. 40 µl/well of scintillation cocktail was added to the plates. A MicroBeta2 microplate counter was then used to read the plate and analyze the data. For reference and test compounds, the results are expressed as % Inhibition, using the normalization equation: N=100−100×(U−C2)/(C1−C2), where U is the unknown value, C1 is the average of high controls, and C2 is the average value of low controls.

[2] = tested on: zymostenol accumulation (EBP) in EpiSC-derived OPCs; assay: GC/MS-based sterol profiling, zymostenol accumulation in EpiSC-derived OPCs; assay type: cell-based, mouse; settings: Mus musculus, 24 h, EpiSC-derived OPCs, 24 hr, 8 doses from 0.15 nM to 333 nM; read-out: Mouse Zymostenol GCMS EC50
Protocol: To assess effects of treatments on OPCs, all treatments were assayed in two or more independent platings of epiblast stem cell-derived OPCs (EpiSC). EpiSC-derived OPCs were obtained using in vitro differentiation protocols and culture conditions described previously (Najm et al, 2011, Nature Methods). OPCs were expanded and frozen down in aliquots. OPCs were thawed into growth conditions for at least one passage before use in further assays.
Sterols were monitored using a modified Folch wash protocol (Hubler et al, 2018, Nature). EpiSC-derived OPCs were plated at 100,000 cells per well in PO- and laminin-coated 96-well plates in N2B27 media without growth factors. After 24 hours, cells were rinsed with saline and plates were frozen. Cholesterol-d7 standard was then added to each well before drying under nitrogen stream and derivatization with 55 μl of bis(trimethylsilyl) trifluoroacetamide. After derivatization, 2 μl were analyzed by gas chromatography/mass spectrometry using an Agilent 5973 Network Mass Selective Detector equipped with a 6890 gas chromatograph system and a HP-5MS capillary column (30 m×0.25 mm×[…]). Samples were analyzed in full scan mode using electron impact ionization; ion fragment peaks were integrated to calculate sterol abundance, and quantitation was relative to cholesterol-d7. The following ion fragments were used to quantitate each metabolite: cholesterol-d7 (465), FF-Mas (482), cholesterol (368), zymostenol (458), zymosterol (456), Desmosterol (456, 343), 7-dehydrocholesterol (456, 325), lanosterol (393), lathosterol (458), 14-dehydrozymostenol (456, 351). […] All standards were obtained from Avanti Polar Lipids unless otherwise indicated. Calibration curves were generated by injecting varying concentrations of sterol standards and maintaining a fixed amount of cholesterol-D7. For normalized zymostenol accumulation results, the total amount of zymostenol measured after drug treatment was divided by the total amount of zymostenol accumulated after 24 hr treatment with 100 nM positive control reference.

pKi [1] | pEC50 [2] | SMILES
5.79 | 6.84 | CC(C)n1nc([C@H]2CC[C@H](C(F)(F)F)CC2)nc1[C@H]1[C@@H]2C[C@H](N3CCOC[C@H]3C)C[C@@H]21 (single isomer, unassigned) [Compound 164*]
7.24 | 7.87 | CC[C@@H]1CN([C@@H]2CC[C@@H](c3nc(-c4cnc(C(F)(F)F)nc4)nn3C(C)C)C2)CCO1 [Compound 153, (R)-2-Ethyl-4-((1R,3R)-3-(1-isopropyl-3-(2-(trifluoromethyl)pyrimidin-5-yl)-1H-1,2,4-triazol-5-yl)cyclopentyl) morpholine]
7.06 | 6.55 | COCCN1CCN([C@@H]2CC[C@@H](c3nc(-c4ccc(C(F)(F)F)nc4)nn3C(C)C)C2)CC1 [Compound 82, 1-((1R,3R)-3-(1-Isopropyl-3-(6-(trifluoromethyl)pyridin-3-yl)-1H-1,2,4-triazol-5-yl)cyclopentyl)-4-(2-methoxyethyl)piperazine]
 | < 6.48 | CC(C)n1nc(-c2cccc(C(F)(F)F)n2)nc1[C@H]1CC[C@H](N2CCOC[C@@H]2C)CC1 (single isomer, unassigned) [78*]
6.33 | 6.66 | CC[C@H]1CN([C@H]2CC[C@@H](c3nc(-c4cnc(C(F)(F)F)nc4)nn3C(C)C)C2)CCO1 [Compound 154, (S)-2-Ethyl-4-((1S,3R)-3-(1-isopropyl-3-(2-(trifluoromethyl)pyrimidin-5-yl)-1H-1,2,4-triazol-5-yl)cyclopentyl)morpholine]
6.61 | 6.15 | CC(C)n1nc(-c2cncc(Cl)c2)nc1[C@H]1CC[C@H](N2CCOC[C@@H]2C)C1 [Compound 125, (S)-4-((1S,3S)-3-(3-(5-Chloropyridin-3-yl)-1-isopropyl-1H-1,2,4-triazol-5-yl)cyclopentyl)-3-methylmorpholine]
6.30 | 6.89 | CC(C)n1nc(-c2cnc(C(F)(F)F)nc2)nc1[C@@H]1CC[C@@H](N2CCO[C@@H](C)C2)C1 [Compound 151, (S)-4-((1R,3R)-3-(1-Isopropyl-3-(2-(trifluoromethyl)pyrimidin-5-yl)-1H-1,2,4-triazol-5-yl)cyclopentyl)-2-methylmorpholine]
7.11 | 6.60 | COCCN1CCN([C@H]2CC[C@H](c3cc(-c4ccc(C(F)(F)F)nc4)nn3C(C)C)C2)CC1 (single isomer, unassigned) [92*]
6.20 | 6.03 | CC(C)n1nc(-c2cnc(C(F)(F)F)nc2)cc1[C@H]1[C@@H]2C[C@@H](N3CCOC[C@H]3C)C[C@@H]21 [Compound 96, (R)-4-((1R,3s,5S,6R)-6-(1-Isopropyl-3-(2-(trifluoromethyl)pyrimidin-5-yl)-1H-pyrazol-5-yl)bicyclo[3.1.0]hexan-3-yl)-3-methylmorpholine]
7.96 | 7.47 | COCCN1CCN([C@@H]2CC[C@@H](c3cc(-c4ccc(C(F)(F)F)nc4)nn3C(C)C)C2)CC1 (single isomer, unassigned) [90*]
7.06 | 7.21 | CC(C)n1nc(-c2cncc(C(F)(F)F)n2)cc1[C@H]1[C@@H]2C[C@H](N3CCOCC3)C[C@@H]21 [Compound 108, 4-((1R,3r,5S,6r)-6-(1-Isopropyl-3-(6-(trifluoromethyl)pyrazin-2-yl)-1H-pyrazol-5-yl)bicyclo[3.1.0]hexan-3-yl)morpholine]
5.76 | 7.84 | CC[C@H]1CN([C@@H]2CC[C@H](c3nc(-c4cnc(C(F)(F)F)c(F)c4)nn3C(C)C)C2)CCO1 [Compound 147, (S)-2-Ethyl-4-((1R,3S)-3-(3-(5-fluoro-6-(trifluoromethyl)pyridin-3-yl)-1-isopropyl-1H-1,2,4-triazol-5-yl)cyclopentyl)morpholine]
6.25 | 6.71 | CC(C)n1nc(-c2cncc(C(F)(F)F)c2)nc1[C@H]1[C@@H]2C[C@@H](N3CCOC[C@@H]3C)C[C@@H]21 [Compound 121, (S)-4-((1R,3s,5S,6R)-6-(1-Isopropyl-3-(5-(trifluoromethyl)pyridin-3-yl)-1H-1,2,4-triazol-5-yl)bicyclo[3.1.0]hexan-3-yl)-3-methylmorpholine]
7.49 | 7.40 | CC(C)n1nc(-c2ccc(C(F)(F)F)nc2)nc1[C@@H]1CC[C@@H](N2CCCOCC2)C1 [Compound 3, 4-((1R,3R)-3-(1-isopropyl-3-(6-(trifluoromethyl)pyridin-3-yl)-1H-1,2,4-triazol-5-yl)cyclopentyl)-1,4-oxazepane]
6.52 | 7.08 | CC(C)n1nc(-c2cnc(C(F)(F)F)nc2)nc1[C@H]1CC[C@H](N2CCO[C@H](C)C2)C1 [Compound 145, (R)-4-((1S,3S)-3-(1-isopropyl-3-(2-(trifluoromethyl)pyrimidin-5-yl)-1H-1,2,4-triazol-5-yl)cyclopentyl)-2-methylmorpholine]
6.61 | 6.73 | CC(C)n1nc(-c2cnc(C(F)(F)F)nc2)nc1[C@H]1CC[C@H](N2CCOCC2)C1 [Compound 94, 4-((1S,3S)-3-(1-Isopropyl-3-(2-(trifluoromethyl)pyrimidin-5-yl)-1H-1,2,4-triazol-5-yl)cyclopentyl)morpholine]
7.06 | 7.21 | CC(C)n1nc(-c2ccnc(C(F)(F)F)n2)cc1[C@H]1[C@@H]2C[C@H](N3CCOCC3)C[C@@H]21 [Compound 99, 4-((1R,3r,5S,6r)-6-(1-Isopropyl-3-(2-(trifluoromethyl)pyrimidin-4-yl)-1H-pyrazol-5-yl)bicyclo[3.1.0]hexan-3-yl)morpholine]
7.51 | 8.17 | CC(C)n1nc(-c2cncc(Cl)c2)nc1[C@H]1CC[C@@H](N2CCOC[C@@H]2C)C1 [Compound 126, (S)-4-((1R,3S)-3-(3-(5-Chloropyridin-3-yl)-1-isopropyl-1H-1,2,4-triazol-5-yl)cyclopentyl)-3-methylmorpholine]
7.36 | 8.39 | CC[C@@H]1CN([C@@H]2CC[C@H](c3nc(-c4ccc(C(F)F)nc4)nn3C(C)C)C2)CCO1 [Compound 156, (R)-4-((1R,3S)-3-(3-(6-(Difluoromethyl)pyridin-3-yl)-1-isopropyl-1H-1,2,4-triazol-5-yl)cyclopentyl)-2-ethylmorpholine]
 | 6.85 | CC(C)n1nc(-c2cc(C(F)(F)F)ccn2)nc1[C@@H]1CC[C@@H](N2CCOCC2)C1 (single isomer, unassigned) [27*]
6.41 | 6.64 | CC(C)n1nc(-c2ccc(C(F)(F)F)nc2)nc1[C@H]1CC[C@H](N2CCO[C@H](CF)C2)C1 (single isomer, unassigned) [Compound 168]
 | 7.56 | CC(C)n1nc(-c2cccc(C(F)(F)F)n2)nc1[C@H]1CC[C@@H](N2CCOC[C@H]2C)CC1 (single isomer, unassigned) [81*]
 | 7.64 | CC(C)n1nc(-c2cccc(C(F)(F)F)n2)nc1[C@H]1CC[C@@H](N2CCOC[C@@H]2C)CC1 (single isomer, unassigned) [79*]
